# Values quoted from earlier work as cited in US20170007591A1, “Composition to Mitigate Spikes in Blood Sugar” (Panacea Scientific, Inc., priority 2015, published 2017).
# Assays:
# δ-opioid receptor = δ-opioid receptor (Homo sapiens, UniProt P41143); details: acts as non-selective antagonist
# κ-opioid receptor = κ-opioid receptor (Homo sapiens, UniProt P41145); details: acts as non-selective antagonist
# μ-opioid receptor = μ-opioid receptor (Homo sapiens, UniProt P35372); details: acts as non-selective antagonist
# Chain of μ-opioid receptor (P35372 whole entry): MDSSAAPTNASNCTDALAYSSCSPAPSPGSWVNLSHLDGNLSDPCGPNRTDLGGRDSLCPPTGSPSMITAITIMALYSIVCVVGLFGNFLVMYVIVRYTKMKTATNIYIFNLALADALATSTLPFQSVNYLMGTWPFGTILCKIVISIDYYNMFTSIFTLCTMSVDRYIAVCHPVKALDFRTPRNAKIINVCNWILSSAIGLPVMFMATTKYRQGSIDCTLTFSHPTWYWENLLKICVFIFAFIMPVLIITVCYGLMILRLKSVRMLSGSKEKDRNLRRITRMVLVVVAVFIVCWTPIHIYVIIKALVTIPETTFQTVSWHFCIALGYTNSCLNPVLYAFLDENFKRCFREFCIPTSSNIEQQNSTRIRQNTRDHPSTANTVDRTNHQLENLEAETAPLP
# CYP2C9 = CYP2C9 (Homo sapiens, UniProt P11712); details: in humans
# Chain of CYP2C9 (P11712 whole entry): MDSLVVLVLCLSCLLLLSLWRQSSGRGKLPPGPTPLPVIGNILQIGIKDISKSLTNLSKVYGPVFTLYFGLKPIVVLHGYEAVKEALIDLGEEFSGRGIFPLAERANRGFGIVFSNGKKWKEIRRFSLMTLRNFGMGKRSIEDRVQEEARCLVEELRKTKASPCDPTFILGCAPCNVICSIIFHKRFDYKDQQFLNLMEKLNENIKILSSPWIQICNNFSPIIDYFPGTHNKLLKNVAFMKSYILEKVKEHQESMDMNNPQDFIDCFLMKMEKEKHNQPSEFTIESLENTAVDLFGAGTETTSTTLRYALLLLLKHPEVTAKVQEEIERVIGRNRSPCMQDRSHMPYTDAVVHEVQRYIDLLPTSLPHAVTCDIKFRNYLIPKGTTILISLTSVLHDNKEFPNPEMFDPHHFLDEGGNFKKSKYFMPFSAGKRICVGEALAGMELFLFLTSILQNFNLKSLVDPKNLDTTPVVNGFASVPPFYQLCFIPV
# [1] = rats; 20 mg piperine dose with 2 g/kg dose of curcumin
# Chain of κ-opioid receptor (P41145 whole entry): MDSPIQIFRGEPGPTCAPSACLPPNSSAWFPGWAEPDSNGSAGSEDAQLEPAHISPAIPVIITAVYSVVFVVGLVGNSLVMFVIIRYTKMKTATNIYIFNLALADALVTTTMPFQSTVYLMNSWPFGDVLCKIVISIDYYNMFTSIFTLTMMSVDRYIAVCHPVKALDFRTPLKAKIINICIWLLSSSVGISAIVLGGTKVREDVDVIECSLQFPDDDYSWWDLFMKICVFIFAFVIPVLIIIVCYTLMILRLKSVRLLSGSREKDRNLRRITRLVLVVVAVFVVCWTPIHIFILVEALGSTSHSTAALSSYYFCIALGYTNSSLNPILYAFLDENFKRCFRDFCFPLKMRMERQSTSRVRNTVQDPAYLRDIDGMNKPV
# Chain of δ-opioid receptor (P41143 whole entry): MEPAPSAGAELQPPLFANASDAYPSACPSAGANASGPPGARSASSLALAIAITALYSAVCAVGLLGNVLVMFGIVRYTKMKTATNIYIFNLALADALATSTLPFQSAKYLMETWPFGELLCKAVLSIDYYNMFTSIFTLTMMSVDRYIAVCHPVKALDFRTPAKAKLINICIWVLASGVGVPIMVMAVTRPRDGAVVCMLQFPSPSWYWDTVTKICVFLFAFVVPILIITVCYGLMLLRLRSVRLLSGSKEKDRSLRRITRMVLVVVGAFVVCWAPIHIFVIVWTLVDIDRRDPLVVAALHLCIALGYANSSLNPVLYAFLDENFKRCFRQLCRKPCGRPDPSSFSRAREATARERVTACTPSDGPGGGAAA
increase of the bioavailability of curcumin [1],Structure (SMILES),affinity for δ-opioid receptor (δ-opioid receptor),affinity for κ-opioid receptor (κ-opioid receptor),affinity for μ-opioid receptor (μ-opioid receptor),inhibition of CYP2C9 (CYP2C9)
–,"O=c1cc(-c2ccc(O)cc2)oc2cc(O)cc(O)c12 [apigenin, 4′,5,7-trihydroxyflavone]",nonomolar affinity,nonomolar affinity,nonomolar affinity,inhibits the enzyme CYP2C9
154%,O=C(/C=C/C=C/c1ccc2c(c1)OCO2)N1CCCCC1 [piperine],–,–,–,–
